Structures can show the parent of a compound that is named as a salt.
Target: human recombinant adenosine kinase (Homo sapiens, UniProt P55263)
Experiment: Inhibition of human recombinant adenosine kinase
Format: biochemical
Settings: 14C-adenosine substrate, 0.5 mM ATP, 37° C., 20 min; read-out: Adenosine kinase inhibition (in vitro): IC50
Protocol: 1. Inhibition of Human Recombinant Adenosine Kinase
The test is carried out on 96-well filter plates (DE81 from Millipore, DEAE cellulose, 0.65 μm). The test buffer contains 50 mM tris/HCl pH 8.0, 10 mM DTT and 1 mM MgCl2; immediately prior to the start of the test, ATP is added in a concentration of 0.5 mM. The substrate used is ^14C-adenosine, diluted 1:30 in cold adenosine; the final concentration of the cold adenosine is 4×10^−6 M; the amount of ^14C-adenosine is chosen such that, at a volume of 10 μl, an activity of 0.5 kBq (=30 000 decays per minute) is present per well of the filter plate. The substances to be tested are dissolved in DMSO in a concentration of 10^−2 M. Further dilutions are carried out using water.
When carrying out the test, initially 80 μl of buffer are initially charged into each well. The test substances, the substrate adenosine and finally human recombinant adenosine kinase (Mathews J. J. et al., Biochemistry (1998) 37, 15607-15620) in test buffer pH 7.4 are added successively, in each case in a volume of 10 μl. The adenosine kinase concentration is chosen such that at most 30% of the total amount of adenosine are converted. The plates are then incubated at 37° C. for 20 min. The reaction is then stopped by filtration with suction. The filters are washed in each case once with ice-cold wash buffer (15 mM Tris/HCl pH 8.5) and ethanol. The plate is dried at 37° C. (about 15 min). 50 μl of scintillation solution are then pipetted into each well, and the ^14C activity is determined in a MicroBeta counter.
The inhibition of the enzyme activity by the substances tested is determined after substration of the blank value (no added enzyme) in comparison to the uninhibited enzyme (100% value).

human recombinant adenosine kinase, sequence (P55263 1-345 isoform P55263-2): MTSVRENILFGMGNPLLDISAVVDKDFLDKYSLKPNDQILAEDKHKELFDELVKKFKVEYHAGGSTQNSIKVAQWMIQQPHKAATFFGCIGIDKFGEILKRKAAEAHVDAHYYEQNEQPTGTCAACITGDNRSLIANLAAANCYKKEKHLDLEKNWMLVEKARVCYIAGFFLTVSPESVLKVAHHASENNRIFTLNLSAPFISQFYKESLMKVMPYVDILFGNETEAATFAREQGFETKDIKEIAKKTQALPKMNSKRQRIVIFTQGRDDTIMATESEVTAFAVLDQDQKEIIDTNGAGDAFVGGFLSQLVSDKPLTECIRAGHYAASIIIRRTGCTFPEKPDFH

In order of falling IC50:
1. CC(C)CNc1ncnc2oc(-c3ccc(C(=O)N4CCN(C)CC4)cc3)c(-c3ccccc3)c12 [Example 13, N-Isobutyl-6-{4-[(4-methyl-1-piperazinyl)carbonyl]phenyl}-5-phenylfuro[2,3-d]-pyrimidine-4-amine]  100 nM
2. COc1ccc(-c2oc3ncnc(N(C)C4CCCCCC4)c3c2-c2ccc(OC)cc2)cc1 [Example 29, N-Cycloheptyl-5,6-bis(4-methoxyphenyl)-N-methylfuro[2,3-d]pyrimidine-4-amine]  80 nM
3. CN1CCN(c2ncnc3oc(-c4ccc(N5CCC5=O)cc4)c(-c4ccc(F)cc4)c23)CC1 [Example 24, 1-{4-[5-(4-Fluorophenyl)-4-(4-methyl-1-piperazinyl)furo[2,3-d]pyrimidin-6-yl]phenyl}-2-azetidinone]  30 nM
4. CN1CCN(c2ncnc3oc(-c4ccc(NC(=O)c5cccnc5)cc4)c(-c4ccccc4)c23)CC1 [Example 32, N-{4-[4-(4-Methyl-1-piperazinyl)-5-phenylfuro[2,3-d]pyrimidin-6-yl]phenyl}-nicotinamide]  30 nM
5. OCCNc1ccc(-c2oc3ncnc(N4CCC(O)CC4)c3c2-c2ccc(F)cc2)cn1 [Example 193, 1-(5-(4-Fluorophenyl)-6-{6-[(2-hydroxyethyl)amino]-3-pyridinyl]furo[2,3-d]pyrimidin-4-yl)-4-piperidinol]  30 nM
6. NC1CCN(c2ccc(-c3oc4ncnc(N5CCC(N)CC5)c4c3-c3ccc(F)cc3)cn2)CC1 [Example 270]  30 nM
7. O=C(Nc1ccc(-c2oc3ncnc(N4CCC(O)CC4)c3c2-c2ccc(F)cc2)cc1)[C@@H]1CCCN1 [Example 201, N-{4-[5-Fluorophenyl)-4-(4-hydroxy-1-piperidinyl)furo[2.3-d]pyrimidin-6-yl]-phenyl}-L-prolinamide Hydrochloride]  20 nM
8. CN1CCN(c2ncnc3oc(-c4ccc(NC(=O)CN)cc4)c(-c4ccc(F)cc4)c23)CC1 [Example 6, N-1-{4-[5-(4-Fluorophenyl)-4-(4-methyl-1-piperazinyl)furo[2,3-d]pyrimidin-6-yl]phenylgylcinamidedihydrochloride]  20 nM
9. OC1CCN(c2ccc(-c3oc4ncnc(N5CCC(O)CC5)c4c3-c3ccc(F)cc3)cn2)CC1 [Example 198, 1-{5-[5-(4-Fluorophenyl)-4-(4-hydroxy-1-piperidinyl)furo[2,3-d]pyrimidin-6-yl]-2-pyridinyl}-4-piperidinol]  20 nM
10. CCN1CCN(c2ccc(-c3oc4ncnc(N5CCN(CC)CC5)c4c3-c3ccc(F)cc3)cn2)CC1 [Example 326]  15 nM
11. CC(=O)N1CCN(c2ccc(-c3oc4ncnc(N5CCC(O)CC5)c4c3-c3ccc(F)cc3)cn2)CC1 [Example 255]  5 nM

Tested on: not given
Experiment: not given
Settings: not given

`COc1ccc(-c2c(-c3ccc(OC)c(OC)c3)oc3ncnc(NC4CCCCC4)c23)cc1` [Example 109] and `COc1ccc(-c2oc3ncnc(NC4CCCCCC4)c3c2-c2ccc(F)cc2)cc1OC` [Example 115] cannot be ordered by melting point: 181 to 182 °C for the first, 180 to 182 °C for the second.

Compared with `CN1CCN(c2ncnc3oc(-c4ccc(NCc5ccccc5)cc4)c(-c4ccccc4)c23)CC1` [Example 75], `CN1CCN(c2ncnc3oc(-c4ccc(Cl)nc4)c(-c4ccccc4)c23)CC1` [Example 94] is higher in melting point: 161 to 163 °C for the first, 173 to 175 °C for the second.

First: COc1cc(OC)cc(-c2oc3ncnc(NCCc4cccs4)c3c2-c2ccccc2)c1 [Example 134]
Second: COc1cc(OC)cc(-c2oc3ncnc(NC(CO)CO)c3c2-c2ccccc2)c1 [Example 108]
The melting point of the first is higher: 152 to 153 °C for the first, 131 to 133 °C for the second.

Compared with `COc1cc(OC)cc(-c2oc3ncnc(N4CCN(CCO)CC4)c3c2-c2ccc(F)cc2)c1` [Example 83], `COc1ccc(-c2oc3ncnc(N4CCN(CCO)CC4)c3c2-c2ccc(F)cc2)cc1OC` [Example 39] is lower in melting point: 161 to 163 °C for the first, 156 to 158 °C for the second.

First: COc1ccc(-c2oc3ncnc(N4CCN(CCO)CC4)c3c2-c2ccccc2)cc1OC [Example 112]
Second: COc1ccc(-c2oc3ncnc(N4CCC(O)CC4)c3c2-c2ccccc2)cc1OC [Example 111]
The melting point of the first is higher: 188 to 189 °C for the first, 176 to 178 °C for the second.

First: COc1ccc(-c2oc3ncnc(N4CCOCC4)c3c2-c2ccc(F)cc2)cc1OC [Example 116]
Second: COc1ccc(-c2oc3ncnc(N4CCN(C)CC4)c3c2-c2ccc(F)cc2)cc1OC [Example 53]
The melting point of the first is higher: 211 to 213 °C for the first, 168 to 169 °C for the second.

Compared with `O=C(Nc1ccc(-c2oc3ncnc(N4CCOCC4)c3c2-c2ccc(F)cc2)cc1)C1CCCO1` (stereo not drawn) [Example 71], `CC(=O)NC(C)C(=O)Nc1ccc(-c2oc3ncnc(N4CCOCC4)c3c2-c2ccc(F)cc2)cc1` (stereo not drawn) [Example 55] is higher in melting point: 201 to 202 °C for the first, 250 to 252 °C for the second.

First: COc1ccc(-c2oc3ncnc(N4CCCCCC4)c3c2-c2ccc(F)cc2)cc1OC [Example 141]
Second: COc1ccc(-c2oc3ncnc(N4CCC(C(N)=O)CC4)c3c2-c2ccc(F)cc2)cc1OC [Example 51]
The melting point of the first is lower: 148 to 150 °C for the first, 235 to 237 °C for the second.

Compared with `CN1CCN(c2ccc(-c3oc4ncnc(N5CCN(C)CC5)c4c3-c3ccccc3)cn2)CC1` [Example 173], `CN1CCN(c2ncnc3oc(-c4ccc(N5CCOCC5)nc4)c(-c4ccccc4)c23)CC1` [Example 7, 4-(4-Methyl-1-piperazinyl)-6-[N-(4-morpholinyl)-3-pyridinyl]-5-phenylfuro[2,3-d]pyrimidine] is higher in melting point: 176 to 177 °C for the first, 255 to 257 °C for the second.

First: CN1CCC(N(C)c2ncnc3oc(-c4ccc(F)cc4)c(-c4ccc(F)cc4)c23)CC1
Second: OCCN(Cc1ccccc1)c1ncnc2oc(-c3ccc(F)cc3)c(-c3ccc(F)cc3)c12 [Example 177]
The melting point of the first is higher: 180 to 181 °C for the first, 156 to 158 °C for the second.

Compared with `CN1CCN(c2ncnc3oc(-c4ccc(NC5CCCCC5)nc4)c(-c4ccccc4)c23)CC1` [Example 125], `COc1cc(OC)cc(-c2oc3ncnc(N4CCN(C)CC4)c3c2-c2ccccc2)c1` [Example 113] is lower in melting point: 208 to 209 °C for the first, 156 to 157 °C for the second.

Compared with `COc1cc(OC)cc(-c2oc3ncnc(N(C)CCO)c3c2-c2ccccc2)c1` [Example 157], `COc1cc(OC)cc(-c2oc3ncnc(NC4CCCC4)c3c2-c2ccccc2)c1` [Example 135] is higher in melting point: 132 to 134 °C for the first, 153 to 154 °C for the second.

First: COc1ccc(-c2oc3ncnc(N4CCN(c5ccccn5)CC4)c3c2-c2ccc(F)cc2)cc1OC [Example 114]
Second: COc1ccc(-c2oc3ncnc(N4CCN(C(C)C)CC4)c3c2-c2ccc(F)cc2)cc1OC [Example 64]
The melting point of the first is higher: 210 to 212 °C for the first, 180 to 181 °C for the second.

First: CCN(CC)c1ncnc2oc(-c3ccc(OC)c(OC)c3)c(-c3ccccc3)c12 [Example 63]
Second: COc1ccc(-c2oc3ncnc(N(CCO)CCO)c3c2-c2ccccc2)cc1OC [Example 159]
The melting point of the first is lower: 125 to 126 °C for the first, 137 to 139 °C for the second.

First: COc1cc(OC)cc(-c2oc3ncnc(NC4CCCCCC4)c3c2-c2ccc(F)cc2)c1 [Example 69]
Second: COc1cc(OC)cc(-c2oc3ncnc(NC4CCCCCC4)c3c2-c2ccccc2)c1 [Example 1, N-Cycloheptyl-6-(3,5-dimethoxyphenyl)-5-phenylfuro[2,3-d]pyrimidine-4-amine]
The melting point of the first is higher: 170 to 172 °C for the first, 151 to 152 °C for the second.

First: COc1ccc(C(=O)Nc2ccc(-c3oc4ncnc(N5CCN(C)CC5)c4c3-c3ccc(F)cc3)cc2)cc1 [Example 54]
Second: COc1cc(OC)cc(-c2oc3ncnc(N4CCCCC4)c3c2-c2ccccc2)c1 [Example 2, 6-(3,5-Dimethoxyphenyl)-5-phenyl-4-(1-piperidinyl)furo[2,3-d]pyrimidine]
The melting point of the first is higher: 252 to 253 °C for the first, 152 to 153 °C for the second.

Compound `CN1CCN(c2ncnc3oc(-c4ccc(NC(=O)c5cccnc5)cc4)c(-c4ccc(F)cc4)c23)CC1` [Example 70] has a melting point greater than 250 °C.
In the case of `O=C(Nc1ccc(-c2oc3ncnc(N4CCOCC4)c3c2-c2ccc(F)cc2)cc1)c1ccc([N+](=O)[O-])cc1` [Example 47], the melting point is reported as greater than 250 °C.
With `COc1ccc(-c2oc3ncnc(N4CCC(C(N)=O)CC4)c3c2-c2ccccc2)cc1OC` [Example 154] the melting point was greater than 250 °C.
`CN1CCN(c2ncnc3oc(-c4ccc(NC(=O)C5CCCO5)cc4)c(-c4ccc(F)cc4)c23)CC1` (stereo not drawn) [Example 49] showed a melting point greater than 250 °C.
`COC(=O)c1ccc(C(=O)Nc2ccc(-c3oc4ncnc(N5CCN(C)CC5)c4c3-c3ccc(F)cc3)cc2)cc1` [Example 88] showed a melting point greater than 250 °C.
For `CN1CCN(c2ncnc3oc(-c4ccc(NC(=O)c5cccc([N+](=O)[O-])c5)cc4)c(-c4ccc(F)cc4)c23)CC1` [Example 48], the melting point was greater than 250 °C.
With `CN1CCN(c2ncnc3oc(-c4ccc([N+](=O)[O-])cc4)c(-c4ccc(F)cc4)c23)CC1` [Example 3, 5-(4-Fluorophenyl)-4-(4-methyl-1-piperazinyl)-6-(4-nitrophenyl)furo[2,3-d]pyrimidine] the melting point was greater than 250 °C.
Work on `COc1ccc(-c2oc3ncnc(Nc4ccncc4)c3c2-c2ccccc2)cc1OC` [Example 172] yielded a melting point greater than 250 °C.

From patent US20040259888A1, “Novel 4-aminofuropyrimidines and the use thereof” (priority 2001, published 2004)
